This is an account of results in patent publication US11298367B2, “Prodrugs of substituted triazole derivatives and uses thereof” (Bayer Aktiengesellschaft, priority 2017, dated 2022).

Structures are written as SMILES. ≈ marks a conversion by molar mass, not a printed value. Where two headings read alike, the source gives them in different places.

One data set is described as follows: Solubility. It is filed as physicochemical. Conditions: 24 h room temperature, max. 500 μg/ml; for solubility at 24 h: thermodynamic from solid. The protocol:
For each substance 0.5-0.6 mg are weighed exactly. In each case, sufficient medium is added to the sample in such a way that a concentration of c=500 μg/ml is obtained. This sample solution is shaken for 24 h at room temperature and 1400 rpm.
A further sample weight of 0.5-0.6 mg is required for the DMSO calibration solution. This sample is filled with DMSO to a concentration of c=600 μg/ml. Two calibration solutions are prepared from this stock solution. In a 2 ml HPLC vial, 1000 μl of DMSO are initially introduced and 34.4 μl of the stock solution are pipetted (c=20 µg/ml). […] of this solution (c=20 μg/ml) are placed in a further 2 ml HPLC vial containing 500 μl of DMSO (c=2.5 μg/ml).
After shaking the test solutions, 230 μl of the supernatant are transferred into a centrifuge tube and centrifuged at 42 000 rpm (223 000 g) for 30 min. 180 μl of the supernatant are then taken and each diluted with DMSO (1:5 sample 1; 1:100 sample 2), and transferred to HPLC vials. The two calibration solutions and the dilute sample solutions are analyzed by HPLC. Quantification is performed over the corresponding peak areas.
Distilled water; trifluoroacetic acid (Merck; 1.08262.0100); acetonitrile (HPLC grade); DMSO (Merck; 8.02912.2500).
Fluka buffer, Order No. 33643 (11.76 g citric acid, 2.57 g sodium chloride and 2.72 g sodium hydroxide).
Fluka buffer, Order No. 33646 (3.52 g potassium dihydrogenphosphate, 7.26 g sodium hydrogen phosphate).
Solution of 6.18 g sodium chloride and 3.96 g sodium dihydrogen phosphate in 1 L distilled water, adjust with 1M aqueous sodium hydroxide solution to pH 7.4.
0.6057 g TRIS was dissolved in 95 ml water, adjust to pH 8.5 with aqueous hydrochloric acid, fill with water until 100 ml volume is reached.

Data set [1] has as its target T1, human V1a receptor (Homo sapiens, UniProt P37288).
T1 construct: expressed in transfected cells; host or cells: CHO K1 (Chinese hamster ovary), also stably transfected with a modified aequorin
Description: Cellular in vitro assay for vasopressin receptor activity (V1a, aequorin luminescence). It is filed as cell-based. Conditions: selectivity ratio hV2/hV1a. As for the experimental part: B-1. Cellular In Vitro Assay for Determining Vasopressin Receptor Activity
The identification of agonists and antagonists of the V1a and V2 vasopressin receptors from humans, rats and dogs as well as the quantification of the activity of the compounds of the invention is carried out using recombinant cell lines. These cell lines originally derive from a hamster's ovary epithelial cell (Chinese Hamster Ovary, CHO K1, ATCC: American Type Culture Collection, Manassas, Va. 20108, USA). The test cell lines constitutively express the human, rat or dog V1a or V2 receptors. In case of the Gaq-coupled V1a receptors, cells are also stably transfected with a modified form of the calcium-sensitive photoproteins aequorin (human and rat V1a) or obelin (dog V1a), which, after reconstitution with the cofactor coelenterazine, emit light when there are increases in free calcium concentrations [Rizzuto R, Simpson A W, Brini M, Pozzan T, Nature 358, 325-327 (1992); Illarionov B A, Bondar V S, Illarionova V A, Vysotski E S, Gene 153 (2), 273-274 (1995)]. The resulting vasopressin receptor cells react to stimulation of the recombinantly expressed Via receptors by intracellular release of calcium ions, which can be quantified by the resulting photoprotein luminescence. The Gs-coupled V2 receptors are stably transfected into cell lines expressing the gene for firefly luciferase under control of a CRE-responsible promoter. Activation of V2 receptors induces the activation of the CRE-responsive promoter via cAMP increase, thereby inducing the expression of firefly luciferase. The light emitted by photoproteins of V1a cell lines as well as the light emitted by firefly luciferase of V2 cell lines corresponds to the activation or inhibition of the respective vasopressin receptor. The bioluminescence of the cell lines is detected using a suitable luminometer [Milligan G, Marshall F, Rees S, Trends in Pharmacological Sciences 17, 235-237 (1996)].
Vasopressin V1a Receptor Cell Lines:
On the day before the assay, the cells are plated out in culture medium (DMEM/F12, 2% FCS, 2 mM glutamine, 10 mM HEPES, 5 μg/ml coelenterazine) in 384-well microtiter plates and kept in a cell incubator (96% humidity, 5% v/v CO2, 37C). On the day of the assay, test compounds in various concentrations are placed for 10 minutes in the wells of the microtiter plate before the agonist [Arg^8]-vasopressin at EC50 concentration is added. The resulting light signal is measured immediately in a luminometer.
Table 1A below lists individual IC50 values for the compounds of the invention (including racemic mixtures as well as separated enantiomers) that were obtained from cell lines transfected with the human V1a or V2 receptor. This means these IC50 values are the values for the prodrug and not for the underlying respective drug as the prodrug is mainly stable under the assay conditions.

For data set [2], the target named is T1, human V1a receptor. The data set can be described thus: Cellular in vitro assay for verification of prodrug conversion into drug (with/without alkaline phosphatase). Type of data set: cell-based. Conditions: human V1a CHO cells. As for the experimental part: B-4. Cellular In Vitro Assay for Verification of Prodrug Conversion into Drug
To verify the conversion of prodrugs into the respective drugs, the prodrugs are incubated with and without alkaline phosphatase. Cleavage of the phosphate moiety by alkaline phosphatase converts the prodrug into the underlying respective drug [Coleman J. E., Annu. Rev. Biophys. Biomol. Struct. 1992, 21, 441-483]. As prodrug and underlying respective drug show different IC50 values, the value of the prodrug after alkaline phosphatase treatment resembles the IC50 of the respective drug. The determination of IC50 values of compounds of the invention at the human V1a receptor is carried out using a recombinant cell line. The cell line originally derives from a hamster's ovary epithelial cell (Chinese Hamster Ovary, CHO K1, ATCC: American Type Culture Collection, Manassas, Va. 20108, USA). The test cell line constitutively expresses the human V1a receptor. Cells are also stably transfected with a modified form of the calcium-sensitive photoprotein aequorin which, after reconstitution with the cofactor coelenterazine, emits light upon increase in free calcium concentration [Rizzuto R, Simpson A W, Brini M, Pozzan T, Nature 358, 325-327 (1992); Illarionov B A, Bondar V S, Illarionova V A, Vysotski E S, Gene 153 (2), 273-274 (1995)]. The resulting vasopressin receptor cell reacts to stimulation of the recombinantly expressed V1a receptor by intracellular release of calcium ions, which can be quantified by the resulting luminescence of photoprotein. The bioluminescence of the cell line is detected using a suitable luminometer [Milligan G, Marshall F, Rees S, Trends in Pharmacological Sciences 17, 235-237 (1996)].
On the day before the assay, the cells are seeded in culture medium (DMEM/F12, 2% FCS, 2 mM glutamine, 10 mM HEPES, 5 μg/ml coelenterazine) in 384-well microtiter plates and kept in a cell incubator (96% humidity, 5% v/v CO2, 37C). On the day of the assay, 100 μl of test compounds at a concentration of 100 μM are incubated for 15 minutes with 500 units alkaline phosphatase at 37° C. in tyrode buffer (20 mM HEPES, 130 mM NaCl, 5 mM KCl, 5 mM NaHCO3, 2 mM MgCl2, pH 7,4). After incubation compounds are immediately diluted and placed for 10 minutes at 37° C. on the before seeded V1a cells. For detection of antagonistic activity of the compounds [Arg^8]-vasopressin at EC50 concentration is added and the resulting light signal is measured immediately in a luminometer.

The mark [3] stands for this setting: Tris buffer pH 8.5, pH 8.5, aqueous buffer, pH = 8.5 Tris buffer.
The mark [4] stands for this setting: pre-incubation 15 min with 500 units alkaline phosphatase at 37° C., read-out: IC50 with AP.
Where [5] appears, read: without alkaline phosphatase, read-out: IC50 without AP.

A word on the solubility: it is the concentration that dissolves in the medium under given conditions. Broadly, the IC50 is the point on the concentration scale where inhibition reaches its midpoint.

T1 sequence (P37288 whole entry): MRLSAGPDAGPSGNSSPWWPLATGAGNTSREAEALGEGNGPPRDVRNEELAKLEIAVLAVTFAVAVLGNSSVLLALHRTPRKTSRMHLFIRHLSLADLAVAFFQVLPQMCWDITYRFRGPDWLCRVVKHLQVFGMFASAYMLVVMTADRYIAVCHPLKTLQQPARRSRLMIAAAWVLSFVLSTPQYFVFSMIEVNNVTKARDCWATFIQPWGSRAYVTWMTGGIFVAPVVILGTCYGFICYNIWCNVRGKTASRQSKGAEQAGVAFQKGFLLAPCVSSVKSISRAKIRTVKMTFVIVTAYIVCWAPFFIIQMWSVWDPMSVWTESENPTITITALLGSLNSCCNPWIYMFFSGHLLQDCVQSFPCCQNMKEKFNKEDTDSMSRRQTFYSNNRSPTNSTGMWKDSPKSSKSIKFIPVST

As for `NC(=O)c1nc(Cn2nc(-c3ccc(Cl)cc3)n(C[C@H](O)C(F)(F)F)c2=O)nn1-c1ncccc1Cl` [Example 8A, 3-({3-(4-Chlorophenyl)-5-oxo-4-[(2S)-3,3,3-trifluoro-2-hydroxypropyl]-4,5-dihydro-1H-1,2,4-triazol-1-yl}methyl)-1-(3-chloropyridin-2-yl)-1H-1,2,4-triazole-5-carboxamide], the solubility at 24 h in the data set “Solubility” (setting [3]) was 4 µg/mL (≈ 7.36 µM); in “Solubility” (citrate buffer pH 4, pH 4, aqueous buffer, pH = 4 citrate buffer) it was 5.9 µg/mL (≈ 10.9 µM); in “Solubility” (phosphate buffer pH 7, pH 7, aqueous buffer, pH = 7.0 buffer), 2.8 µg/mL (≈ 5.15 µM). Moreover, at human V1a receptor [1], the “ratio IC50 hV2/hV1a” value came out at 38.2. The results for the concentration for half-maximal inhibition (IC50) on human V1a receptor [2] (setting [4]) and on human V1a receptor [2] (setting [5]) were 1.1 nM and 1.7 nM, respectively.

Compound `NC(=O)c1nc(Cn2nc(-c3ccc(Cl)cc3)n(C[C@H](O)C(F)(F)F)c2=O)nn1-c1ccccc1C(F)(F)F` [Example 6A, 3-({3-(4-Chlorophenyl)-5-oxo-4-[(2S)-3,3,3-trifluoro-2-hydroxypropyl]-4,5-dihydro-1H-1,2,4-triazol-1-yl}methyl)-1-[2-(trifluoromethyl)phenyl]-1H-1,2,4-triazole-5-carboxamide] registered a solubility at 24 h in the data set “Solubility” (setting [3]) of 4.3 µg/mL (≈ 7.47 µM). Moreover, the Solubility entry in the data set “Solubility” (pH = 4 citrate buffer) and in “Solubility” (pH = 7.0 buffer) was “not detectable” in each case. Moreover, the “ratio IC50 hV2/hV1a” value at human V1a receptor [1] is given as 41.4. Also, the half-maximal inhibitory concentration (IC50) at human V1a receptor [2] (setting [4]) and at human V1a receptor [2] (setting [5]) was 1.35 nM in each case.
